Data from patent publication US20220387472A1, “COMPOSITIONS AND METHODS FOR TREATING CANCER” (AIM ImmunoTech Inc., priority 2020, published 2022).
“And” between values parts separate entries of the source, which are not always exact repeats. Equal values may be shown once. Read-outs that look alike come from different tables or passages of the source.

Legend:
[1] = test system: Pancreatic Adenocarcinoma; conditions: cited from earlier work
[2] = Maximum tolerated dose (MTD) in humans; type: in vivo
Procedure: (§1) Ampligen® has undergone extensive preclinical safety testing including 18 animal (mice, rat, rabbit, dog, and monkey) toxicity studies; 6 animal (rat and rabbit) reproductive studies, and 2 animal (rat, monkey) PK/PD studies. The MTD for humans and NHPs is >10 mg/kg and >36 mg/kg, respectively.

[3] = test system: metastatic or locally advanced pancreatic carcinoma; test: Survival of pancreatic cancer patients given […] following FOLFIRINOX vs matched historical control group; type: in vivo, human; conditions: n = 27 per group, from start of FOLFIRINOX, control: FOLFIRINOX only (historical); for Median Overall Survival: AMPLIGEN i.v. 200 mg twice weekly for 2 weeks, then 400 mg twice weekly, 18 weeks total, following FOLFIRINOX
Procedure: In this case, the tdsRNA used is rintatolimod ([…]®) which is a form of tdsRNA. Included in the study were adults with metastatic or locally advanced pancreatic carcinoma following FOLFIRINOX treatment. The tdsRNA treatment was rintatolimod ([…]®) administered i.v. 200 mg twice weekly for 2 weeks, then 400 mg twice weekly for a total treatment duration of 18 weeks.
The experiment compared survival in the experimental […]® cohort (n=27) compared to a historical control group (n=27) matched for age, gender, disease stage and number of cycles of FOLFIRINOX.
To be selected for the study, the patient should be over 18 years in age and diagnosed with locally advanced pancreatic cancer (LAPC) or metastasized pancreatic cancer. These LACP patients were not candidates for surgical resection. The patient should have completed the standard of care (e.g., A FOLFIRINOX regimen) and the patient should have no progressive disease (as detected by computed tomography (CT) 6 weeks after treatment). Patients with second malignancy (simultaneous), on immunosuppressive medication, or having liver-renal insufficiency were excluded.
Survival analysis was performed as follows. A group of 136 patients was assembled from a retrospective database, including all patients who received FOLFIRINOX between 2012-2018. Variables that were matched include age (+ or −10 years); gender; disease stage (locally advanced pancreatic cancer (LAPC), metastasized, metastasized after resection); and the number of FOLFIRINOX cycles to obtain a historical control group that was well-matched to the experimental group. The outcomes were determined from the start of FOLFIRINOX, and the overall survival and progression-free survival were calculated.

[4] = set-up: species or system Humans; conditions: human, in vivo, 6 mg/kg
Procedure: as §1

[5] = Clinical safety and tolerability of tdsRNA (rintatolimod); type: in vivo, human; conditions: for Tolerability: twice weekly infusions
Text: tdsRNA (e.g., Rintatolimod) has undergone extensive clinical and preclinical testing. […] Favorable safety profiles have been seen for intraperitoneal, intravenous, and intranasal routes of administration of tdsRNA.
Our analysis and previous studies have shown that […]® has a very good safety profile. […]® lacks the potent toxicities seen with most chemotherapeutic agents. See, e.g., […]®'s safety profile in other parts of this disclosure. […] Thus, we believe the ideal use of […]® would be to continue therapy beyond 18 weeks until time of tumor progression. We believe this approach could add an additional 4 to 6 months or more to the overall survival (OS) benefit.

[6] = Maximum tolerated dose (MTD) in NHP; type: in vivo; conditions: NHP (Cynomolgus monkey)
Procedure: as §1

[7] = cynomolgus monkey, in vivo, 6 mg/kg
Procedure: as §1

[8] = clinical trials enrolling over 1,200 patients, over 100,000 doses

O=C(c1cc(Cc2n[nH]c(=O)c3ccccc23)ccc1F)N1CCN(C(=O)C2CC2)CC1 [Lynparza]
OS Over Control ([1]; Second-Line Therapy, median OS over the control arm): 3.6 months

Nc1ccn([C@@H]2O[C@H](CO)[C@@H](O)C2(F)F)c(=O)n1 [gemcitabine]
OS Months ([1]; First-Line Therapy, median overall survival): 6.7 Months and 6.0 Months and 6.8 Months

rIn.r(C12U)n
MTD ([2]; based on 1200 mg BIW (cancer)): 17 mg/kg | MTD ([2]; based on randomized, well-controlled 24 week study in HIV disease): > 10 mg/kg | Median Progression-free Survival ([3]; AMPLIGEN following FOLFIRINOX): 12.0 months | Median Overall Survival [3]: 19.0 months and 19 months | Median Overall Survival ([3]; listed as Ampligen): 19 months | Half-Life [4]: 36.5 min | Drug-related deaths [5, 8]: no drug-related deaths | Tolerability [5, 8]: generally well-tolerated | Tolerability ([5]; clinical trials enrolling over 1,200 patients, over 100,000 doses, listed as Ampligen): generally well-tolerated | Tolerability ([5]; clinical trials enrolling over 1,200 patients, over 100,000 doses, listed as Rintatolimod): well-tolerated | Cumulative toxicities ([5]; human, in vivo): no evidence of any cumulative toxicities | Serious adverse events compared to placebo ([5]; two placebo-controlled, randomized studies): no increase in serious adverse events compared to placebo | MTD ([6]; based on 4 weeks): 100 mg/kg | MTD ([6]; based on 24 weeks): > 36 mg/kg | Half-Life [7]: 22.9 min
